# Measurements: ChEMBL document CHEMBL1201862, “PubChem BioAssay data set” (2004)
# Activity calls are given as the source filed them.
# What was measured:
# [1] = target: T1, Induced myeloid leukemia cell differentiation protein Mcl-1 (Homo sapiens, UniProt Q07820); type: functional
# [2] = target: Bcl-2-like protein 1 (Homo sapiens, UniProt Q07817); assay: BCL-XL inhibitors, dose response, selectivity assay for MCL1 inhibitor project, biochemical, fluorescence polarization, 1536-well (AID 2218)
# Chain of Bcl-2-like protein 1 (Q07817 whole entry): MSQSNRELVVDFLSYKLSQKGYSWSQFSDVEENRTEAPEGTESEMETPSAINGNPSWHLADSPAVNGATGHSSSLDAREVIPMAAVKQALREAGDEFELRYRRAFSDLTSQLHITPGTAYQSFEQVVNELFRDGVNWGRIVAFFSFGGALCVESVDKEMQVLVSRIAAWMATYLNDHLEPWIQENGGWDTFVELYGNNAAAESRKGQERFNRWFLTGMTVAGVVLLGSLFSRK
# [3] = target: T1, Induced myeloid leukemia cell differentiation protein Mcl-1; assay: MCL1-BIM BH3 interaction inhibitors, dose response, biochemical, fluorescence polarization, BIM-BH3 peptide, 1536-well (AID 2217)
# [4] = target: NADPH oxidase 1 (Homo sapiens, UniProt Q9Y5S8); type: functional, cell-based;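 further: Cell-based assay with luminescence read-out, IC50 derived from inhibitor dose-response curves; intracellular ROS from endogenous NOX1 in intact HT29 colon cancer cells; potency of inhibitors that lower the ROS luminescence signal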
# Chain of NADPH oxidase 1 (Q9Y5S8 whole entry): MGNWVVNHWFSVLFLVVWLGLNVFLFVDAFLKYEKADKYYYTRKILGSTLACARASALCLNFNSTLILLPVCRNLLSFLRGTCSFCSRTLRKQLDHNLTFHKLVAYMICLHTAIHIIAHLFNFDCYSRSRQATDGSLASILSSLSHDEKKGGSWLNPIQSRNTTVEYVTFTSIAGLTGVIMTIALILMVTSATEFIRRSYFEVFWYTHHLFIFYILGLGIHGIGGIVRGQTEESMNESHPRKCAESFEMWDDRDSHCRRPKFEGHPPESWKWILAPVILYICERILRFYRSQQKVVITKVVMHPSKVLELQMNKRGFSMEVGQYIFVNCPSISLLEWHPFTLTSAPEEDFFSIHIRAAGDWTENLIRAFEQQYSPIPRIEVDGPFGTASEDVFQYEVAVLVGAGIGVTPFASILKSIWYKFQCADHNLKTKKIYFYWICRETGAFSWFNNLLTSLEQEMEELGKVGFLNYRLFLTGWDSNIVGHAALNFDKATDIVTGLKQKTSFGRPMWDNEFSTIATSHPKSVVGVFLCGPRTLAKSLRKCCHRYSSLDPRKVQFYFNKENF
# [5] = test system: Vero; assay: cytotoxicity of synthesized analogs in Vero cells, SAR follow-up, cytotoxicity control for West Nile virus antiviral project, cell-based, set II (AID 2402); type: functional; conditions: Chlorocebus sabaeus
# [6] = test system: Vero; assay: cytotoxicity of synthesized analogs in Vero 76, SAR follow-up, cytotoxicity control for West Nile virus antiviral project, Vero 76 cells (AID 2414); type: functional; conditions: Chlorocebus sabaeus
# [7] = target: Prothrombin (Homo sapiens, UniProt P00734); assay: Thrombin 1536 HTS Dose Response Confirmation. [Related pubchem assays: 1046 (Thrombin 1536 HTS; hits were confirmed in this assay)]; type: functional
# [8] = target: Glyceraldehyde-3-phosphate dehydrogenase (Homo sapiens, UniProt P04406)
# Chain of Glyceraldehyde-3-phosphate dehydrogenase (P04406 whole entry): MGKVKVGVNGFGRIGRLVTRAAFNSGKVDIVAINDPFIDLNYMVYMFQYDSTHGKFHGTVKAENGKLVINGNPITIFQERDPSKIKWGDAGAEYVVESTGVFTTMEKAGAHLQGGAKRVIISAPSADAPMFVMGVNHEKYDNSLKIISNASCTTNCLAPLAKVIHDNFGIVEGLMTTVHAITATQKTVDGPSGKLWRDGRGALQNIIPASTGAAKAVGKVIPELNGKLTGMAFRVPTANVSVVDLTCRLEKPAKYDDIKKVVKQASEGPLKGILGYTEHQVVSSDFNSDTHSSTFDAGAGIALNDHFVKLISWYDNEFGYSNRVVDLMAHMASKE
# [9] = target: T2, Bcl-2-related protein A1 (Mus musculus, UniProt Q07440); assay: Bfl-1 inhibitors blocking BH3 peptide binding, confirmation, biochemical, TR-FRET, mouse Bfl-1 (AID 621);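 further: TR-FRET binding of GST-Bfl-1 to FITC-labelled Bid peptide via terbium antibody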
# T2 sequence (Q07440 whole entry): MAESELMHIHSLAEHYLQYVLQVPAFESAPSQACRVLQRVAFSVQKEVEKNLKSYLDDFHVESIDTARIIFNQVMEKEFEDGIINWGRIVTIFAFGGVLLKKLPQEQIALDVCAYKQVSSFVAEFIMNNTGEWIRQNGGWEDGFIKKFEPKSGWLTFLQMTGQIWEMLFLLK
# [10] = target: T2, Bcl-2-related protein A1; assay: Bfl-1 binding inhibitors, SAR follow-up, biochemical, fluorescence polarization (AID 1070)
# [11] = target: Neuropeptides B/W receptor type 1 (Homo sapiens, UniProt P48145); assay: Fluorescence-based dose response cell-based high throughput screening assay to identify antagonists of the G-protein coupled receptor 7 (GPR7). [Related pubchem assays: 1952 (Screening assay (GPR7 antagonists).), 1880 (Summary AID.)]; type: functional
# Chain of Neuropeptides B/W receptor type 1 (P48145 whole entry): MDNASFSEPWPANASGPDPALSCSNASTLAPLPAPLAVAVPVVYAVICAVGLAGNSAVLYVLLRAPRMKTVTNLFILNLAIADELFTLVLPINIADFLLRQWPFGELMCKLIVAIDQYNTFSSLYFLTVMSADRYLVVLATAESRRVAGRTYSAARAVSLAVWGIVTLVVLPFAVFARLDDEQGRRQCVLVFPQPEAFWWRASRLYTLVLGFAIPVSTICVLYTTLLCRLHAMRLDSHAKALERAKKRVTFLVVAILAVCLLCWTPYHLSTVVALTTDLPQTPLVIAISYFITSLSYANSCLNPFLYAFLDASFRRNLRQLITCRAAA
# [12] = target: Melanin-concentrating hormone receptor 1 (Homo sapiens, UniProt Q99705); assay: Fluorescence-based counterscreen for antagonists of the G-protein coupled receptor 7 (GPR7): cell-based high throughput dose response assay to identify antagonists of the melanin-concentrating hormone receptor 1 (MCHR1).; type: functional
# Chain of Melanin-concentrating hormone receptor 1 (Q99705 whole entry): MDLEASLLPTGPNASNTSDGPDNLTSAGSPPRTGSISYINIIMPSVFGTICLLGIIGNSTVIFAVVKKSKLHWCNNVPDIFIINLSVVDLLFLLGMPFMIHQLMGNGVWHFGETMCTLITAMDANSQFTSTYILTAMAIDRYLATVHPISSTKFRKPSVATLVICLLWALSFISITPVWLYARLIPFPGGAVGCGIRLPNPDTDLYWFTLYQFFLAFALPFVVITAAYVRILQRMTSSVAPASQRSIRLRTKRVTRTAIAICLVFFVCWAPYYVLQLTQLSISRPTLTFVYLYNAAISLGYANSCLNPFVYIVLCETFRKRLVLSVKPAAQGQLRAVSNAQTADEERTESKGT
# [13] = test system: Vero; assay: West Nile virus antiviral activity, cell-based, CPE readout (AID 1621); type: functional; conditions: Chlorocebus sabaeus
# [14] = target: Diphosphomevalonate decarboxylase (Streptococcus pneumoniae serotype 2 (strain D39 / NCTC 7466), UniProt Q9FD53); assay: S. pneumoniae DPM-DC inhibition retest, confirmation, biochemical, cuvette format, coupled NADH fluorescence (AID 1028); type: functional
# Chain of Diphosphomevalonate decarboxylase (Q9FD53 whole entry): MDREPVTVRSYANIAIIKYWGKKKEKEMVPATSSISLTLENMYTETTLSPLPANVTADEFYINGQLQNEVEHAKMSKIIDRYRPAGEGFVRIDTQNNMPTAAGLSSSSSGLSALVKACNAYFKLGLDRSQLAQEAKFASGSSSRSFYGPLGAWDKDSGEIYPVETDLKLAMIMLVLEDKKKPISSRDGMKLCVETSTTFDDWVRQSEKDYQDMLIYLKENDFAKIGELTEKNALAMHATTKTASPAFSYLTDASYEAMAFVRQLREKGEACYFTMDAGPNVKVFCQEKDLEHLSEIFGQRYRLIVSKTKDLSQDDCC
# [15] = P. falciparum late gametocyte killing, dose response, luminescence (AID 1117278); type: functional, cell-based;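 further: gametocytes exposed to compound for 24 hours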
# [16] = Jurkat T cell cytotoxicity, dose response, cytotoxicity control for P. falciparum gametocyte viability project, luminescence (AID 1117277); type: functional, cell-based;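 further: potency reflects loss of cellular ATP meaning fewer viable cells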
# T1 sequence (Q07820 whole entry): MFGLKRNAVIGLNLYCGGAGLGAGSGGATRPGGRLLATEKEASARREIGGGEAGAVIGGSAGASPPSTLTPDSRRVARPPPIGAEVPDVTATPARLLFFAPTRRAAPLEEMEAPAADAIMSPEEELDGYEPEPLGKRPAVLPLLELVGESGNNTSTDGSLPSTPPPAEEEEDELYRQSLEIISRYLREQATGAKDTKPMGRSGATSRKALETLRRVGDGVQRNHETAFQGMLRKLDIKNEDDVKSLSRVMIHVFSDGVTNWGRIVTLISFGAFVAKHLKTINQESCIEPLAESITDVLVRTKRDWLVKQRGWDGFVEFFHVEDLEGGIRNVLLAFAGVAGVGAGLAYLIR
structure (smiles),measurement,setting,value
Nc1nc(S)c2ncn(C3OC(CO)C(O)C3O)c2n1 (stereo unspecified),IC50,[1],7.34 µM (active)
same,IC50,[2],34 µM (not active)
same,IC50,[3],4.94 µM (active)
O=C(O)c1sc2ccccc2c1Cl,IC50,[4],> 17 µM (not active)
COc1cccc(-n2c(SCC(=O)Nc3ccc4c(c3)CCC4)nc3ccccc3c2=O)c1,CC50,[5],> 100 µM (active)
same,CC50,[6],> 66.6 µM (active)
same,IC50,[7],> 50 µM (not active)
O=C1C(Cl)=C(Cl)C(=O)N1c1cc(Cl)cc(Cl)c1,IC50,[8],> 100 µM (not active)
same,IC50,[9],2.07 µM (active)
same,IC50,[10],1.42 µM (active)
OC1(c2ccc(F)cc2)CC2CCC(C1)N2Cc1nnnn1C1CCCCC1 (stereo unspecified),IC50,[11],28.3 µM (not active)
same,IC50,[12],24 µM (not active)
Cc1ccc(-c2cc(C(=O)NCCCN3CCCC3)c3ccccc3n2)cc1C,IC50,[13],21.8 µM (active)
O=C(c1cccc(-n2sc3ccccc3c2=O)c1)N1CCCC1,IC50,[14],16.5 µM (active)
Cc1cc(S(=O)(=O)N(Cc2ccccc2F)C2CC2)ccc1-n1cnnn1,IC50,[15],> 109 µM (inactive)
same,IC50,[16],> 83.2 µM (inactive)
